As a reminder, the IC50 is the midpoint of a concentration-inhibition curve.

The record followed here is patent US20100173888A1 (Pfizer Inc, priority 2008, published 2010).

The assay concerns the target human recombinant H-PGDS (Homo sapiens, UniProt O60760). Nature of the assay: Fluorescence intensity h-PGDS TBA enzyme assay (PGH2 depletion, MDA/TBA fluorescence). The class given is biochemical. Particulars: 1:175,000 human recombinant H-PGDS, 42 second reaction, 3-fold serial dilutions, highest concentration typically 1 μM. The procedure:
Fluoresecence Intensity h-PGDSTBA Enzyme Assay
Prostaglandin D Synthase (PGDS) converts the substrate prostaglandin H2 (PGH2) to prostaglandin D2. The depletion of PGH2 was measured via an Fe(II) reduction of the remaining PGH2 to malondialdehyde (MDA) and 12-HHT. The enzyme assay is based on the quantitative formation of a fluorescent complex from the non-fluorescent compounds MDA and 2-thiobarbituric acid (TBA), substantially as described in U.S. patent application publication US-2004/152148 by Lombardt.
The enzyme assay (31 μls) contained 100 mM Tris base pH 8.0, 100 μM MgCl2, 0.1 mg/ml IgG Rabbit serum, 5.0 μM PGH2 (Cayman; ethanol solution, #17020), 2.5 mM L-Glutathione (Sigma; reduced form. #G4251), 1:175,000 human recombinant H-PGDS (from 1 mg/ml), 0.5% DMSO and inhibitor (varying concentration). Three μls of diluted inhibitor (dissolved in DMSO) was plated into a 384-well assay plate followed by a 25 μl addition of an enzyme solution containing h-PGDS, Tris, MgCl2, IgG and L-Glutathione. After preincubation of inhibitor and enzyme solution for 10 minutes at room temperature, the reaction was initiated with a 3 μl addition of substrate solution in 10 mM HCl. The reaction was terminated after 42 second by the addition (3 μl) of stop buffer containing FeCl2 and citric acid. After addition of 45.5 μls of TBA plates were heated for one hour in a 70° C. oven. Plates were cooled at room temperature overnight and read on a plate reader the next day with excitation @ 530 nm and emission @ 565 nm.
IC50' s of inhibitors were calculated with a 4-parameter fit using 11 inhibitor concentrations in duplicate with 3-fold serial dilutions. Controls on each plate included no inhibitor (zero % effect) and an inhibitor 10-fold in excess of its' IC50 (100% effect). The highest inhibitor concentration tested was typically 1 μM.

Molecules are shown by their SMILES. Counter-ions that a name gives are not always drawn.

Sequence of human recombinant H-PGDS (O60760 whole entry): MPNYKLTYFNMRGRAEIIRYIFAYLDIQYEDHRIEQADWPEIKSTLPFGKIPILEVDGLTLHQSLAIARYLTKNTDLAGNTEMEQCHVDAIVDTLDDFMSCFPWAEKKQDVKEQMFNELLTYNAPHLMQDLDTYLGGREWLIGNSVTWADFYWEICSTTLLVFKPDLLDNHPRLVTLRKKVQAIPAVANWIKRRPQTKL

In the case of `O=C(N[C@@H]1CCC[C@H](CNC(=O)[C@@H]2CCCN2)C1)c1ccc(-c2cccc(F)c2)nc1` [Example 259], the IC50 came out at 44.1 nM.
On to `CC(C)(N)C(=O)N[C@H]1CC[C@H](NC(=O)c2ccc(-c3cccc(F)c3)nc2)CC1` [Example 113K, 6-(3-fluorophenyl)-N-{trans-4-[(2-methylalanyl)amino]cyclohexyl}nicotinamide], for which the concentration for half-maximal inhibition (IC50) turned out to be 9.6 nM.
Take `CC(C)n1ncc2c1CCCC2NC(=O)c1ccc(-c2cccc(F)c2)nc1` (stereo not shown) [Example 129, 6-(3-Fluorophenyl)-N-(1-isopropyl-4,5,6,7-tetrahydro-1H-indazol-4-yl)nicotinamide]: the IC50 is 194 nM.
The value for `O=C(N[C@@H]1CC[C@H](C(=O)N2CC[C@H](F)C2)C1)c1ccc(-c2cccc(F)c2)nc1` [Example 181, 6-(3-Fluorophenyl)-N-[(1R,3S)-3-{[(3S)-3-fluoropyrrolidin-1-yl]carbonyl}cyclopentyl]nicotinamide] was 5.8 nM.
The figure for `CN1CCN(C(=O)N[C@@H]2CCC[C@H](NC(=O)c3ccc(-c4cccc(F)c4)nc3)C2)CC1` (relative stereo) [Example 268, N-(cis-3-({[6-(3-Fluorophenyl)pyridine-3-yl]carbonyl}amino)cyclohexyl]-4-methylpiperazine-1-carboxamide] is 24.6 nM.
For the molecule `CC[C@@H](O)C(=O)N[C@H]1CC[C@H](NC(=O)c2ccc(-c3cccc(F)c3)nc2)CC1` [Example 113J, 6-(3-fluorophenyl)-N-(trans-4-{[(2R)-2-hydroxybutanoyl]amino}cyclohexyl)nicotinamide], the IC50 came out at 6.6 nM.
The figure for `O=C(N[C@H]1CC[C@H](CO)CC1)c1cnc(-c2cccc(F)c2)c(Cl)c1` [Example 114, 5-Chloro-6-(3-fluorophenyl)-N-[trans-4-(hydroxymethyl)cyclohexyl]nicotinamide] is 4.41 nM; for `COC(=O)C1(NC(=O)c2ccc(-c3cccc(F)c3)nc2)CC1` [Example 2, Methyl 1-({[6-(3-fluorophenyl)pyridin-3-yl]carbonyl}amino)cyclopropanecarboxylate] it is 319 nM.
The value for `O=C(N[C@H]1CC[C@H](C(=O)N[C@H]2CCNC2=O)CC1)c1ccc(-c2cccc(F)c2)nc1` [Example 113C, 6-(3-fluorophenyl)-N-(trans-4-{[(3S)-2-oxopyrrolidin-3-yl]carbamoyl}cyclohexyl)nicotinamide] was 7.4 nM; that for `COCCNC(=O)[C@@H]1CCC[C@@H](NC(=O)c2ccc(-c3cccc(F)c3)nc2)C1` (relative stereo) [Example 240] was 26.5 nM; that for `COC1(C(C)O)CCC(NC(=O)c2ccc(-c3cccc(F)c3)nc2)CC1` (stereo not shown) [Example 232, 6-(3-Fluorophenyl)-N-[4-(1-hydroxyethyl)-4-methoxycyclohexyl]nicotinamide] was 31.2 nM.
As to `CC(C)(O)CNC(=O)[C@@H]1CCC[C@H](NC(=O)c2ccc(-c3cccc(F)c3)nc2)C1` (stereo in doubt) [Example 195, 6-(3-Fluorophenyl)-N-{(1S,3R)-3-[(2-hydroxy-2-methylpropyl)carbamoyl]cyclohexyl}nicotinamide], the IC50 is 11.8 nM.
The figure for `O=C(N[C@@H]1CCC[C@@H](C(=O)O)C1)c1ccc(-c2cccc(F)c2)nc1` (relative stereo) [Example 238A, trans-3-({[6-(3-Fluorophenyl)pyridin-3-yl]carbonyl}amino)cyclohexanecarboxylic acid] is 27.4 nM; for `COCC(=O)NC[C@H]1CCC[C@@H](NC(=O)c2ccc(-c3cccc(F)c3)nc2)C1` (relative stereo) [Example 252] it is 17.1 nM.
The figure for `COc1cccc(-c2ccc(C(=O)NC3CCCc4ccccc43)cn2)c1` (stereo not shown) [Example 121, 6-(3-Methoxyphenyl)-N-(1,2,3,4-tetrahydronaphthalen-1-yl)nicotinamide] is 88 nM; for `CN1CCC(C(=O)N[C@H]2CC[C@@H](NC(=O)c3ccc(-c4cccc(F)c4)nc3)CC2)CC1` [Example 218, 6-(3-fluorophenyl)-N-(cis-4-{[(1-methylpiperidin-4-yl)carbonyl]amino}cyclohexyl)nicotinamide] it is 79.7 nM.
The value for `N[C@@H]1CCC[C@H](NC(=O)c2ccc(-c3cccc(F)c3)nc2)C1` (relative stereo) [Example 200, N-[cis-3-Aminocyclohexyl]-6-(3-fluorophenyl)nicotinamide] was 189 nM; that for `O=C(NC1CCCc2ccccc21)c1ccc(-c2cccc(F)c2)nc1` (stereo not shown) [Example 122, 6-(3-Fluorophenyl)-N-(1,2,3,4-tetrahydronaphthalen-1-yl)nicotinamide] was 4.16 nM.
As to `O=C(NC12CC(C1)C2)c1ccc(-c2cccc(F)c2)nc1` [Example 125, N-Bicyclo[1.1.1]pent-1-yl-6-(3-fluorophenyl)nicotinamide], the IC50 is 6.66 nM.
The figure for `COC(=O)C1(NC(=O)c2ccc(-c3ccc(F)cc3)nc2)CC1` [Example 5] is ≥ 1000 nM; for `NCC(=O)N[C@H]1CC[C@@H](NC(=O)c2ccc(-c3cccc(F)c3)nc2)CC1` [Example 224, 6-(3-fluorophenyl)-N-[cis-4-(glycylamino)cyclohexyl]nicotinamide] it is 74 nM.
As to `O=C(N[C@H]1CC[C@H](C(=O)N[C@@H]2CCNC2=O)CC1)c1ccc(-c2cccc(F)c2)nc1` [Example 113B, 6-(3-fluorophenyl)-N-(trans-4-{[(3R)-2-oxopyrrolidin-3-yl]carbamoyl}cyclohexyl)nicotinamide], the IC50 is 7 nM.
Consider `O=C(N[C@H]1CC[C@@H](C(=O)N2CCN(CCO)CC2)C1)c1ccc(-c2cccc(F)c2)nc1` [Example 156, 6-(3-fluorophenyl)-N-[(1S,3R)-3-{[4-(2-hydroxyethyl)piperazin-1-yl]carbonyl}cyclopentyl]nicotinamide], for which the IC50 stood at 11.5 nM.
Turning to `CC(C)(O)[C@H]1CC[C@@H](NC(=O)c2ccc(-c3cccc(F)c3)nc2)C1` [Example 166, 6-(3-Fluorophenyl)-N-[(1R,3S)-3-(1-hydroxy-1-methylethyl)cyclopentyl]nicotinamide], the IC50 is 35.5 nM.
The figure for `C[C@@H](N)C(=O)N[C@H]1CC[C@H](NC(=O)c2ccc(-c3cccc(F)c3)nc2)CC1` [Example 113Q, N-[trans-4-(D-alanylamino)cyclohexyl]-6-(3-fluorophenyl)nicotinamide] is 9.7 nM; for `O=C(N[C@H]1CC[C@@H](C(=O)NC2CC2)C1)c1ccc(-c2cccc(F)c2)nc1` [Example 160, N-[(1S,3R)-3-(cyclopropylcarbamoyl)cyclopentyl]-6-(3-fluorophenyl)nicotinamide] it is 11.2 nM; for `CN1CCC(NC(=O)[C@@H]2CC[C@H](NC(=O)c3ccc(-c4cccc(F)c4)nc3)C2)CC1` [Example 174, 6-(3-Fluorophenyl)-N-{(1S,3R)-3-[(1-methylpiperidin-4-yl)carbamoyl]cyclopentyl}nicotinamide] it is 1860 nM.
Regarding `CN(C)CC(=O)N[C@H]1CC[C@@H](NC(=O)c2ccc(-c3cccc(F)c3)nc2)CC1` [Example 221, N-{cis-4-[(N,N-dimethylglycyl)amino]cyclohexyl}-6-(3-fluorophenyl)nicotinamide], the IC50 turned out to be 52.7 nM.
On to `O=C(N[C@@H]1CCC[C@H](C(=O)NC2CCNCC2)C1)c1ccc(-c2cccc(F)c2)nc1` (relative stereo) [Example 191, 6-(3-Fluorophenyl)-N-cis-3-(piperidin-4-ylcarbamoyl)cyclohexyl]nicotinamide hydrochloride], for which the IC50 was found to be 29.2 nM.
As for `CC(O)C(=O)N[C@H]1CC[C@@H](NC(=O)c2ccc(-c3cccc(F)c3)nc2)CC1` (relative stereo) [Example 222, 6-(3-fluorophenyl)-N-[cis-4-(lactoylamino)cyclohexyl]nicotinamide], the IC50 was 50.8 nM.
For `Cc1nnc(C[C@H]2CC[C@@H](NC(=O)c3ccc(-c4cccc(F)c4)nc3)CC2)o1` [Example 273, 6-(3-Fluorophenyl)-N-{cis-4-[(5-methyl-1,3,4-oxadiazolyl-2-yl)methyl]cyclohexyl}nicotinamide], the IC50 amounted to 5.4 nM.
The value for `O=C(N[C@H]1CC[C@@H](C(=O)N2CCC(CCO)CC2)C1)c1ccc(-c2cccc(F)c2)nc1` [Example 168, 6-(3-Fluorophenyl)-N-[(1S,3R)-3-{(4-(2-hydroxyethyl)piperidin-1-yl]carbonyl}cyclopentyl]nicotinamide] was 4.4 nM; that for `CN1CCCCC1C(=O)N[C@H]1CC[C@@H](NC(=O)c2ccc(-c3cccc(F)c3)nc2)CC1` (relative stereo) [Example 217, 6-(3-fluorophenyl)-N-(cis-4-{[(1-methylpiperidin-2-yl)carbonyl]amino}cyclohexyl)nicotinamide] was 67.1 nM.
The figure for `COCCNC(=O)[C@H]1CC[C@@H](NC(=O)c2ccc(-c3cccc(F)c3)nc2)C1` [Example 185] is 25.4 nM.
